Here are results for 22 molecules from US6730705B1, “Alkoximino acetic acid amides” (Bayer Aktiengesellschaft, priority 1995, dated 2004).

SMILES strings stand for the structures.

Data set [1] is described as follows: log p (physical constant, Table 7).
Data set [2] is described as follows: log p (physical constant of Table 7). Conditions: single isomer (E or Z as listed in Table 7).
[3] abbreviates: E/Z isomer mixture, first of two printed values (x/y).
The mark [4] stands for this setting: E/Z isomer mixture, second of two printed values (x/y).

For `CON=C(C(=O)NCCc1ccc(OC)c(OC)c1)c1ccc(C)cc1` (mixture of isomers) [Compound 41], the log p turned out to be 2.53 in data set [1] (setting [3]) and 2.77 in data set [1] (setting [4]).
The matching figures for `CCON=C(C(=O)NCCc1ccc(OC)c(OC)c1)c1ccc(Cl)cc1` (mixture of isomers) [Compound 77]: 3.07 and 3.34.
On to `CO/N=C(/C(=O)NCCc1ccc(OC)c(OC)c1)c1ccc(Cl)cc1` [Compound 24], for which the log p result in data set [1] (physical constant of Table 7) is recorded as “log p: 2.99”.
The same measure, in the same setting: as for `CON=C(C(=O)NCCc1ccc(OC)c(OC)c1)c1ccc(C)s1` [Compound 73], the entry is “log p: 2.46”; as for `CCc1ccc(/C(=N\OC)C(=O)NCCc2ccc(OC)c(OC)c2)cc1` [Compound 81], “log p: 2.86”.
Same read-out and setting: under `CCOc1ccc(/C(=N\OC)C(=O)NCCc2ccc(OC)c(OC)c2)cc1` [Compound 82] stands “log p: 2.59”.
Turning to `CO/N=C(\C(=O)NCCc1ccc(OC)c(OC)c1)c1ccc(C)c(C)c1` [Compound 91], the log p result in data set [1] (physical constant of Table 7) is recorded as “log p: 3.00”.
The same measure, in the same setting: under `CO/N=C(/C(=O)NCCc1ccc(OC)c(OC)c1)c1ccc(Br)cc1` [Compound 96] stands “log p: 2.82”; under `CO/N=C(/C(=O)NCCc1ccc(OC)c(OC)c1)c1ccc(F)cc1` [Compound 98], “log p: 2.39”; under `CO/N=C(/C(=O)NCCc1ccc(OC)c(OC)c1)c1ccc(C)c(C)c1` [Compound 99], “log p: 2.75”.
Consider `CCO/N=C(/C(=O)NCCc1ccc(OC)c(OC)c1)c1ccc(C)cc1` [Compound 110], for which the log p result in data set [1] (physical constant of Table 7) was “log p: 2.85”.
On to `CON=C(C(=O)NCCc1ccc(OC)c(OC)c1)c1ccc2c(c1)CCC2` [Compound 114], for which the log p result in data set [1] (physical constant of Table 7) is “log p: 3.01”.
Turning to `CON=C(C(=O)NCCc1ccc(OC)c(OC)c1)c1ccc2c(c1)CCCC2` [Compound 117], the log p entry in data set [1] (physical constant of Table 7) is listed as “log p: 3.44”.
With `CCCc1ccc(C(=NOC)C(=O)NCCc2ccc(OC)c(OC)c2)cc1` [Compound 124], the log p result in data set [1] (physical constant of Table 7) was “log p: 3.25”.
Same read-out and setting: as for `CON=C(C(=O)NCCc1ccc(OC)c(OC)c1)c1ccc(OCc2ccccc2)cc1` [Compound 126], the entry is “log p: 3.49”; as for `CCc1ccc(C(=NOC)C(=O)NCCc2ccc(OC)c(OC)c2)s1` [Compound 127], “log p: 3.22”; as for `CCCCc1ccc(C(=NOC)C(=O)NCCc2ccc(OC)c(OC)c2)cc1` [Compound 132], “log p: 3.62”.
As for `CCc1ccc(C(=NOC)C(=O)NCCc2ccc(OC)c(OC)c2)s1` [Compound 143], in data set [1] (physical constant of Table 7), the log p result was “log p: 2.77”.
`CCON=C(C(=O)NCCc1ccc(OC)c(OC)c1)c1ccc(Br)cc1` [Compound 146]: the log p entry in data set [1] (physical constant of Table 7) is recorded as “log p: 3.15”.
On to `CCON=C(C(=O)NCCc1ccc(OC)c(OC)c1)c1ccc2c(c1)CCC2` [Compound 170], for which, in data set [2], the log p result is reported as “log p: 3.25”.
On the same count and under the same terms, under `CO/N=C(/C(=O)NCCc1ccc(OC)c(OC)c1)c1ccc(C2CCCCC2)cc1` [Compound 171] stands “log p: 4.03”; under `CCON=C(C(=O)NCCc1ccc(OC)c(OC)c1)c1ccc2c(c1)CCCC2` [Compound 173], “log p: 3.53”.
